Source: patent US9216204B2, “Bone targeted therapeutics and methods of making and using the same” (MBC Pharma, Inc., priority 1998, dated 2015)

Legend:
[1] = Binding of bisphosphonate conjugates on hydroxyapatite powder (UV absorbency of supernatant); details: pH 7.0
Description: A. To estimate the binding of BC on hydroxyapatite (mineral component of a bone) UV spectra of BC in buffer pH 7 were recorded before and after treatment with hydroxyapatite. To this end 10 μl of hydroxyapatite suspension in water was added to 1 ml of ˜10^−4 M solution of a BC in 0.1M Tris-HCl buffer, pH 7.0, 0.15 M NaCl and the mixture was intensively shaken for 10 minutes, and centrifuged for 5 minutes at 10,000 rpm in a microcentrifuge. The supernatant was separated and an absorbency spectrum of the supernatant was recorded.

[2] = Mineral-binding ability by retention time on hydroxyapatite HPLC column; details: pH = 6.8, 2 mL/min
Description: B. […] The flow rate was 2 mL min^−1. […] Nucleoside mono-, di-, and triphosphates were recorded at a wavelength of 260 nm and zoledronate at a wavelength of 218 nm. The concentration of the eluted compounds was 0.3 mmol L^−1.

[3] = 1500 mM sodium phosphate buffer

SMILES	% of bound compound [1] [%]	% of nonbound compound [1] [%]	Retention time on hydroxyapatite column ([2]; 500 mM sodium phosphate buffer) [min]	Retention time on hydroxyapatite column [2, 3] [min]
O=c1[nH]c(=O)n(COCCOP(=O)(O)OP(=O)(O)CP(=O)(O)O)cc1F [II, Anhydride of 1-(2′-hydroxyethoxymethyl)-5-fluorouracil-2′-phosphate and methylenediphosphonic acid]	87.26	12.74	–	–
O=c1ccn([C@@H]2O[C@H](COP(=O)(O)OP(=O)(O)O)[C@@H](O)[C@H]2O)c(=O)[nH]1 [UDP]	–	–	5.75	3.47
O=c1ccn([C@@H]2O[C@H](COP(=O)(O)O)[C@@H](O)[C@H]2O)c(=O)[nH]1 [UMP]	–	–	4.25	3.42
O=c1ccn([C@@H]2O[C@H](COP(=O)(O)OP(=O)(O)OP(=O)(O)O)[C@@H](O)[C@H]2O)c(=O)[nH]1 [UTP]	–	–	–	3.5
CC(O)(P(=O)(O)O)P(=O)(O)OP(=O)(O)OCC1OC(n2cc(F)c(=O)[nH]c2=O)C(O)C1O (stereo not drawn) [VI, anhydride of 5-Fluoro-uridine-5′-monophosphoric acid and 1-Hydroxyethylidene-1,1-diphosphonic acid]	69.66	30.34	17.72	6.00
O=P(O)(O)C(O)(Cn1ccnc1)P(=O)(O)O [Zoledronate, zoledronate]	–	–	–	17.35
